{"source": "patent US12016880B2", "about": "“Halogen treatment of heart attack and ischemic injury” (Fred Hutchinson Cancer Center, priority 2014, dated 2024)", "key": {"[1]": {"system": "mouse model of heart attack", "experiment": "Mouse LAD ligation ischemia/reperfusion, NaI i.v. before reperfusion, infarct size by morphometry", "assay_type": "in vivo", "experimental": "In order to examine the effect of NaI on myocardial infarct size in a mouse model of heart attack, open chest ligation of the left descending coronary artery (LAD ligation) was performed in mice. At 55 minutes post initiation of ischemia, either vehicle (saline) or test agent (NaI) was injected into the femoral vein of each mouse. The heart muscle was reperfused by releasing the ligature at 60 minutes post initiation of ischemia. After 2 hours of reperfusion, infarct size was measured by morphometry (FIG. 1). Five groups of mice were utilized in this study, including a saline vehicle group (n=3) and […] test groups that received 0.25 mg/kg (n=4), 0.5 mg/kg (n=5), 1 mg/kg (n=5), or 2 mg/kg (n=6) of NaI. To be certain that all animals in the study were treated in a similar way, the area at risk (AAR) as a proportion of the left ventricle was determined (FIG. 1). Area at risk (AAR) and infarct size (Inf) were measured using the specific dyes TTC and Evans blue. Processed images were generated in an unbiased way by setting constant thresholds and allowing Photoshop® to generate the images that were quantitated to generate the data presented in FIG. 1.\nAn additional test was performed under the same conditions but using an expanded range of concentration of NaI."}, "[2]": {"system": "mouse model of heart attack", "experiment": "Mouse LAD ligation, NaI i.v. pretreatment before ischemia, infarct size by morphometry", "assay_type": "in vivo", "experimental": "To determine whether pretreatment with NaI prior to heart attack improves heart attack outcome, open chest ligation experiments were performed in mice where either vehicle (saline) or test agent (NaI) was injected into the femoral vein of each mouse either 5 minutes or 48 hours before initiation of ischemia. Open chest ligation of the left descending coronary artery (LAD ligation) was then performed, and the heart muscle was reperfused by releasing the ligature at 60 minutes post initiation of ischemia. After 2 hours of reperfusion, infarct size was measured by morphometry as described above (FIG. 3). Three groups of mice were utilized in this study, including a saline vehicle group (n=1) and two test groups that received 1 mg/kg NaI 5 minutes before LAD ligation (n=4) or 1 mg/kg NaI 48 hours before LAD ligation (n=1)."}, "[3]": {"system": "mouse model of heart attack", "experiment": "Transthoracic echocardiography of left ventricle after myocardial ischemia and reperfusion", "assay_type": "in vivo", "conditions": "FIG. 4; single intravenous administration two days prior to ligation-induced ischemia", "experimental": "For each of the sets of bars for Ejection Fraction and Fractional Shortening, the bars from left to right correspond to the bars from top to bottom shown in the legend.\nIn vivo transthoracic echocardiography of the left ventricle (LV) using a 30-MHz RMV scanhead interfaced with a Vevo 770 (Visualsonics) was performed, and two-dimensional echocardiography images were obtained. LV end-diastolic diameter (EDD) and LV end-systolic diameter (ESD) were measured at a day before for a baseline and one and 4 weeks after myocardial ischemia and reperfusion. LV percent fractional shortening (FS) and LV ejection fraction (EF) were calculated."}, "[4]": {"system": "rat model of acute myocardial infarction (AMI)", "experiment": "Rat acute myocardial infarction (30 min LAD occlusion), plasma cTpnI and infarct size", "assay_type": "in vivo", "conditions": "1 mg/kg i.v. bolus, vs placebo", "experimental": "Male CD®, IGS Rats (300-450 g) were subjected to 30 minutes of LAD occlusion followed by 24-30 hrs of reperfusion. 200-400 uL of blood was drawn at 4 and 24¬30 hrs post-reperfusion for plasma cTpnI measurements by EIA. After the 24-30 hr blood draw, the LAD was re-occluded, and the heart was excised following i.v. administration of Evans Blue. The hearts were frozen overnight, sectioned, and stained with triphenyl tetrazolium chloride for subsequent blinded infarct analysis.\nRats were anesthetized with a ketamine/xylazine mixture (100 mg/kg and 10 mg/kg, respectively) and maintained under 2-3% isoflurane in 100% medical oxygen after intubation with a 16 gauge angiocatheter sheath (Terumo® Surflo i.v. catheter, 16G×2″, VWR Cat. #TESR-OX1651CA). Animals were ventilated using a Harvard Apparatus Model 683 small animal ventilator equipped with a 5 cc cylinder at a tidal volume of 1.5-2.0 mL/stroke and a respiratory rate of 105 strokes/min. With the rat lying on its right side, animal fur was removed from the surgical area with clippers and then cleaned with alcohol pads. The heart beat was visualized through the chest wall and a dorsoventral incision in the left chest wall was made directly over the beating heart. The underlying fascia was dissected away to reveal the ribs and intercostal muscles. […]"}, "[5]": {"system": "peripheral blood mononuclear cells (PBMC)", "experiment": "Mixed lymphocyte culture, tritiated thymidine incorporation", "assay_type": "cell-based", "conditions": "5 days culture, 18 hours pulse", "experimental": "In particular embodiments, immunosuppression induced by halogen or chalcogenide compounds is assessed by measuring T cell proliferation, e.g., in response to activated antigen presenting cells. Essentially a mixed lymphocyte reaction, this assay exploits that fact that T cell exposure to presented antigens result in T cell activation and proliferation, as well as supportive increases in DNA synthesis. […] Irradiation results in the presentation of numerous antigens to antigen presenting cells, thus the irradiated cells serve as potent activators of T cells. By mixing the irradiated cells with the non-irradiated cells, strong T cell proliferation will occur. This proliferation can be measured using any proliferation assay, as would be commonly known to the skilled artisan. In one embodiment, proliferation is assessed by measuring DNA synthesis. Mixed PBMC were cultured in the presence or absence of halogen or chalcogenide compounds for 5 days, and then pulsed with tritiated thymidine for 18 hours to label newly synthesized DNA. The degree of labeling is directly correlated with the degree of T cell activation, thus low levels of labeling correlate with immunosuppression.\nPBMC were either irradiated with 3500 rads (Ax and Bx) or not (A and B). […] Cells were lysed, the lysate filtered to trap the DNA on the filter and the filters counted in a scintillation counter. […]"}, "[6]": {"system": "mouse model of heart attack", "experiment": "Mouse LAD ligation after two days of drinking water containing NaI, infarct size", "assay_type": "in vivo", "experimental": "In order to examine the effect of pre-treatment with drinking water containing NaI on myocardial infarct size in a mouse model of heart attack, three groups of mice were provided with drinking water containing various concentrations of iodide to achieve dosages of 0.07 mg/kg/day (normal drinking water) for the first group; 0.77 mg/kg/day for the second group; or 7.07 mg/kg/day for the third group, for two days immediately prior to open chest ligation of the left descending coronary artery (LAD ligation) to initiate ischemia. A fourth group of mice was provided with normal drinking water for the two days prior to the initiation of ischemia, but at 55 minutes post initiation of ischemia, either vehicle (saline) or test agent (NaI) was injected into the femoral vein of each of these mice. […] After two hours of reperfusion, infarct size was measured by morphometry (FIG. 1). To be certain that all animals in the study were treated in a similar way, the area at risk (AAR) as a proportion of the left ventricle was determined (FIG. 8). Area at risk (AAR) and infarct size (Inf) were measured using the specific dyes TTC and Evans blue. Processed images were generated in an unbiased way by setting constant thresholds and allowing Photoshop® to generate the images that were quantitated to generate the data presented in FIG. 8."}, "[7]": {"system": "mouse model of chronic heart failure", "experiment": "Mouse chronic heart failure after LAD ligation, iodide in drinking water, echocardiography", "assay_type": "in vivo", "conditions": "drinking water 0.77 mg/kg/day iodide from LAD ligation for 12 weeks vs normal drinking water", "experimental": "In order to examine the effect of drinking water containing NaI on chronic heart failure following heart attack in a mouse model, two groups of mice were provided with drinking water lacking iodide or drinking water containing 0.77 mg/kg/day iodide starting immediately following open chest ligation of the left descending coronary artery (LAD ligation) to initiate ischemia, and continuing until the end of the study, which lasted 12 weeks. Prior to the LAD ligation and at 1 week, 2 weeks, 4 weeks, 8 weeks, and 12 weeks following the LAD ligation, mice were examined by echocardiography to determine their left ventricle ejection fraction and their left ventricle fractional shortening."}, "[8]": {"experiment": "Oxidation of selenide in water or glutathione solution (visual darkening)", "assay_type": "physicochemical", "conditions": "50 mM selenide in 150 mM GSH vs in water, 8 minutes immediately following preparation", "experimental": "The photographs show samples of 50 mM selenide in either water (FIG. 5A) or 150 mM GSH (FIG. 5B) over the eight minutes immediately following preparation."}, "hypoxic injuries": {"system": "hypoxic injuries", "conditions": "mice and rats; PCT Publication No. WO2005/041655; cited from earlier work"}}}
{"molecule": "[I-].[Na+]", "note": "[NaI, sodium iodide]", "values": [{"measurement": "infarct size (morphometry)", "setting": "[1]; NaI 0.25, 0.5, 1 or 2 mg/kg into femoral vein at 55 minutes of ischemia, 2 hours of reperfusion, vs saline group (FIG. 1)", "result": "statistically significant decreases in infarct size"}, {"measurement": "infarct size (morphometry)", "setting": "[1]; additional test, same conditions, expanded range of concentration of NaI, vs saline group (FIG. 2)", "result": "statistically significant decreases in infarct size"}, {"measurement": "reduction in infarct size in comparison to vehicle alone", "setting": "[1]; each dosage tested (0.25-2 mg/kg NaI i.v. at 55 minutes of ischemia)", "result": "approximately 70%"}, {"measurement": "infarct size (morphometry)", "setting": "[2]; 1 mg/kg NaI i.v. 5 minutes or 48 hours before LAD ligation, vs saline group (FIG. 3)", "result": "statistically significant decreases in infarct size"}, {"measurement": "reduction in infarct size in comparison to vehicle alone", "setting": "[2]; pre-treatment 1 mg/kg NaI 5 minutes or 48 hours before LAD ligation", "result": "approximately 70%"}, {"measurement": "protective effect by echocardiography (LV ejection fraction, fractional shortening)", "setting": "[3]", "result": "protective effect of NAI was confirmed by echocardiography"}, {"measurement": "plasma troponin levels (cTpnI)", "setting": "[4]; 4 and 24 hr", "result": "consistently lower"}, {"measurement": "infarct size", "setting": "[4]; 24 hrs", "result": "smaller"}, {"measurement": "tritiated thymidine labeling (DNA synthesis)", "setting": "[5]; highest concentration", "result": "reduced the amount of labeling"}, {"measurement": "infarct size (morphometry)", "setting": "[6]; drinking water 0.77 or 7.07 mg/kg/day for two days prior to LAD ligation vs normal water (0.07 mg/kg/day)", "result": "statistically significant decreases in infarct size"}, {"measurement": "decrease in infarct size compared with iodide i.v. at the time of reperfusion", "setting": "[6]; drinking water pre-treatment for two days", "result": "somewhat less or comparable"}, {"measurement": "left ventricle ejection fraction", "setting": "[7]", "result": "statistically significant increases"}, {"measurement": "left ventricle fractional shortening", "setting": "[7]", "result": "statistically significant increases"}]}
{"molecule": "selenide", "values": [{"measurement": "tritiated thymidine labeling (DNA synthesis)", "setting": "[5]; all concentrations", "result": "reduced the labeling to control levels"}, {"measurement": "oxidation of selenide (dark oxidized forms)", "setting": "[8]", "result": "reduced levels of oxidation at each time point"}]}
{"molecule": "sulfide", "values": [{"measurement": "metabolism and protection from hypoxic injuries", "setting": "hypoxic injuries", "result": "can reduce metabolism and protect mice and rats from hypoxic injuries"}]}
